Counter-ions that a name gives are not always drawn.
Biological target: recombinant human SYK360-635 (Homo sapiens (Human), UniProt P43405)
Assay: SYK kinase assay (33P ATP filtration, IC50 of SYK inhibition)
Assay type: biochemical
Details: truncated SYK aa 360-635 0.5 nM, ATP 20 μM, peptide 5 μM, 30° C. 15 min; read-out: ENZYME_FILTRATION_IC50
Description: Determination of IC50 of Spleen Tyrosine Kinase (SYK) Inhibition:
SYK kinase assay is a standard kinase assay adapted to a 96 well plate format. This assay is performed in 96-well format for IC50 determination with […] which represented 10 half log dilutions and a 40 μL reaction volume. The assay measures the incorporation of radiolabeled ^33P γATP into an N-terminally biotinylated peptide substrate, derived from naturally occurring phosphoacceptor consensus sequence (Biotin-11aa DY*E). Phosphorylated products were detected upon termination of reactions with EDTA and the addition of Streptavidin coated beads.
Assay plates: 96-well MultiScreen 0.65 um filter plates (Millipore Cat. No.: MADVNOB10)
final concentration: 50 mM HEPES pH7.5
BSA: Bovine Serum Albumin Fraction V, fatty acid free (Roche Diagnostics GmbH, Cat. No. 9100221) diluted to a final concentration of 0.1%
Assay Dilution Buffer (ADB): 50 mM HEPES, 0.1 mM EGTA, 0.1 mM Na Vanadate, 0.1 mM β-glycerophosphate, 10 mM MgCl2, 1 mM DTT, 0.1% BSA, pH 7.5
Bead wash buffer: 10 g/L PBS (Phosphate buffered saline) with 2M NaCl+1% phosphoric acid.
DMSO and the mixture was incubated for 10 min at RT.
The kinase reaction was initiated by the addition of 10 μL 4× substrate cocktail containing the DYE peptide substrate [0 or 5 μM], ATP [20 μM] and ^33PγATP [2 μCi/r×n]. After incubation at 30° C. for 15 min, the reaction was terminated by the transfer of 25 μL of the reaction sample to a 96 well 0.65 μm Millipore MADVNOB membrane/plate containing 200 μL 5 mM EDTA and 20% Streptavidine coated beads in PBS.
After the last wash membrane/plates were transferred to an adaptor plate, heat dried for 15 min at 60° C., and 50 μL scintillation cocktail was added to each well and 4 h later the amount of radioactivity was counted in a top counter.

## CC1CCCN1c1cccc(Nc2cc(-c3cccc(C#N)c3)nn3ccnc23)n1 (stereo not drawn) [Example I-80, 3-{8-[6-(2-Methyl-pyrrolidin-1-yl)-pyridin-2-ylamino]-imidazo[1,2-b]pyridazin-6-yl}-benzonitrile]
  IC50: 614 nM

## CC1CCCN1c1cccc(Nc2cc(-c3cccnc3)nn3ccnc23)n1 (stereo not drawn) [Example I-78, [6-(2-Methyl-pyrrolidin-1-yl)-pyridin-2-yl]-(6-pyridin-3-yl-imidazo[1,2-b]pyridazin-8-yl)-amine]
  IC50: 65.2 nM

## CC1CCCN1c1cccc(Nc2cc(-c3cccc(C(=O)NCCO)c3)nn3ccnc23)n1 (stereo not drawn) [Example I-40, N-(2-Hydroxy-ethyl)-3-{8-[6-(2-methyl-pyrrolidin-1-yl)-pyridin-2-ylamino]-imidazo[1,2-b]pyridazin-6-yl}-benzamide]
  IC50: 42.5 nM

## CCC1CCCN1c1cccc(Nc2cc(-c3ccccc3)nn3ccnc23)n1 (stereo not drawn) [Example I-30, [6-(2-Ethyl-pyrrolidin-1-yl)-pyridin-2-yl]-(6-phenyl-imidazo[1,2-b]pyridazin-8-yl)-amine hydrochloride]
  IC50: 1960 nM

## Cc1ccccc1-c1cc(Nc2cccc(N3CCCC3C)n2)c2nccn2n1 (stereo not drawn) [Example I-47, [6-(2-Methyl-pyrrolidin-1-yl)-pyridin-2-yl]-(6-o-tolyl-imidazo[1,2-b]pyridazin-8-yl)-amine]
  IC50: 159 nM

## CC1CCCN1c1cccc(Nc2cc(-c3ccncc3)nn3ccnc23)n1 (stereo not drawn) [Example I-81, [6-(2-Methyl-pyrrolidin-1-yl)-pyridin-2-yl]-(6-pyridin-4-yl-imidazo[1,2-b]pyridazin-8-yl)-amine]
  IC50: 188 nM

## CCN(CC)CCOc1cccc(-c2cc(Nc3cccc(N4CCCC4C)n3)c3nccn3n2)c1 (stereo not drawn) [Example I-91, {6-[3-(2-Diethylamino-ethoxy)-phenyl]-imidazo[1,2-b]pyridazin-8-yl}-[6-(2-methyl-pyrrolidin-1-yl)-pyridin-2-yl]-amine]
  IC50: 261 nM

## COc1ccc(Nc2cc(-c3ccc(C(=O)O)cc3)nn3ccnc23)nc1OC [Example I-26, 4-[8-(5,6-Dimethoxy-pyridin-2-ylamino)-imidazo[1,2-b]pyridazin-6-yl]-benzoic acid]
  IC50: 265 nM

## CC1(C)CCN(c2cccc(Nc3cc(-c4cccc(C(=O)O)c4)nn4ccnc34)n2)C1 [Example I-59, 3-{8-[6-(3,3-Dimethyl-pyrrolidin-1-yl)-pyridin-2-ylamino]-imidazo[1,2-b]pyridazin-6-yl}-benzoic acid]
  IC50: 599 nM

## CC1CCCN1c1cccc(Nc2cc(-c3ccc4[nH]ncc4c3)nn3ccnc23)n1 (stereo not drawn) [Example I-37, [6-(1H-Indazol-5-yl)-imidazo[1,2-b]pyridazin-8-yl]-[6-(2-methyl-pyrrolidin-1-yl)-pyridin-2-yl]-amine]
  IC50: 98.1 nM

## C[C@H]1CCCN1c1cccc(Nc2cc(-c3cccc(Cl)c3)nn3ccnc23)n1 [Example I-71, [6-(3-Chloro-phenyl)-imidazo[1,2-b]pyridazin-8-yl]-[6-((S)-2-methyl-pyrrolidin-1-yl)-pyridin-2-yl]-amine hydrochloride]
  IC50: 246 nM

## COCC1CCCN1c1cccc(Nc2cc(-c3ccccc3)nn3ccnc23)n1 (stereo not drawn) [Example I-35, [6-(2-Methoxymethyl-pyrrolidin-1-yl)-pyridin-2-yl]-(6-phenyl-imidazo[1,2-b]pyridazin-8-yl)-amine hydrochloride]
  IC50: 834 nM

## CC1(C)CCN(c2cccc(Nc3cc(-c4ccccc4)nn4ccnc34)n2)C1 [Example I-34, [6-(3,3-Dimethyl-pyrrolidin-1-yl)-pyridin-2-yl]-(6-phenyl-imidazo[1,2-b]pyridazin-8-yl)-amine]
  IC50: 1050 nM

## CC1CCCN1c1cccc(Nc2cc(-c3ccc(F)cc3)nn3ccnc23)n1 (stereo not drawn) [Example I-79, [6-(4-Fluoro-phenyl)-imidazo[1,2-b]pyridazin-8-yl]-[6-(2-methyl-pyrrolidin-1-yl)-pyridin-2-yl]-amine]
  IC50: 488 nM

## O=C(O)c1cccc(-c2cc(Nc3cccc(N4CCCC4CO)n3)c3nccn3n2)c1 (stereo not drawn) [Example I-20, 3-{8-[6-(2-Hydroxymethyl-pyrrolidin-1-yl)-pyridin-2-ylamino]-imidazo[1,2-b]pyridazin-6-yl}-benzoic acid]
  IC50: 258 nM

## CC1CCC(C)N1c1cccc(Nc2cc(-c3cccc(C(=O)O)c3)nn3ccnc23)n1 (stereo not drawn) [Example I-60, 3-{8-[6-(2,5-Dimethyl-pyrrolidin-1-yl)-pyridin-2-ylamino]-imidazo[1,2-b]pyridazin-6-yl}-benzoic acid]
  IC50: 231 nM

## COc1ccc(Nc2cc(-c3cccc(C(=O)Nc4ccc5c(c4)CNC5=O)c3)nn3ccnc23)nc1OC [Example I-56, 3-[8-(5,6-Dimethoxy-pyridin-2-ylamino)-imidazo[1,2-b]pyridazin-6-yl]-N-(1-oxo-2,3-dihydro-1H-isoindol-5-yl)-benzamide]
  IC50: 593 nM

## CC1CCCN1c1cccc(Nc2cc(-c3cccc(OCCN4CCCCC4)c3)nn3ccnc23)n1 (stereo not drawn) [Example I-87, [6-(2-Methyl-pyrrolidin-1-yl)-pyridin-2-yl]-{6-[3-(2-piperidin-1-yl-ethoxy)-phenyl]-imidazo[1,2-b]pyridazin-8-yl}-amine]
  IC50: 210 nM

## COCC1CCCN1c1cccc(Nc2cc(-c3cccc(C(=O)O)c3)nn3ccnc23)n1 (stereo not drawn) [Example I-36, 3-{8-[6-(2-Methoxymethyl-pyrrolidin-1-yl)-pyridin-2-ylamino]-imidazo[1,2-b]pyridazin-6-yl}-benzoic acid]
  IC50: 345 nM

## COc1ccc(Nc2cc(N3CCCC(C(=O)Nc4ccc(C(=O)O)cc4)C3)nn3ccnc23)nc1OC (stereo not drawn) [Example I-74, 4-({1-[8-(5,6-Dimethoxy-pyridin-2-ylamino)-imidazo[1,2-b]pyridazin-6-yl]-piperidine-3-carbonyl}-amino)-benzoic acid]
  IC50: 14.9 nM

## CC1CCCN1c1cccc(Nc2cc(-c3ccccc3C(F)(F)F)nn3ccnc23)n1 (stereo not drawn) [Example I-48, [6-(2-Methyl-pyrrolidin-1-yl)-pyridin-2-yl]-[6-(2-trifluoromethyl-phenyl)-imidazo[1,2-b]pyridazin-8-yl]-amine hydrochloride]
  IC50: 410 nM

## CC1CCCN1c1cccc(Nc2cc(-c3cccc(CN4CCCC4)c3)nn3ccnc23)n1 (stereo not drawn) [Example I-70, [6-(2-Methyl-pyrrolidin-1-yl)-pyridin-2-yl]-[6-(3-pyrrolidin-1-ylmethyl-phenyl)-imidazo[1,2-b]pyridazin-8-yl]-amine]
  IC50: 60.8 nM

## O=C(O)c1cccc(-c2cc(Nc3cccc(N4CC5CC5C4)n3)c3nccn3n2)c1 (stereo not drawn) [Example I-23, 3-{8-[6-(3-Aza-bicyclo[3.1.0]hex-3-yl)-pyridin-2-ylamino]-imidazo[1,2-b]pyridazin-6-yl}-benzoic acid]
  IC50: 442 nM

## COc1ccc(-c2cc(Nc3cccc(N4CCCC4C)n3)c3nccn3n2)cc1OC (stereo not drawn) [Example I-62, [6-(3,4-Dimethoxy-phenyl)-imidazo[1,2-b]pyridazin-8-yl]-[6-(2-methyl-pyrrolidin-1-yl)-pyridin-2-yl]-amine]
  IC50: 306 nM

## CC1CCCN1c1cccc(Nc2cc(-c3ccc(C(=O)O)cc3)nn3ccnc23)n1 (stereo not drawn) [Example I-15, 4-{8-[6-(2-Methyl-pyrrolidin-1-yl)-pyridin-2-ylamino]-imidazo[1,2-b]pyridazin-6-yl}-benzoic acid]
  IC50: 84.2 nM

## COc1ccc(Nc2cc(N3CCC(NC(=O)c4ccc(C(=O)O)cc4)C3)nn3ccnc23)nc1OC (stereo not drawn) [Example I-76, N-{1-[8-(5,6-Dimethoxy-pyridin-2-ylamino)-imidazo[1,2-b]pyridazin-6-yl]-pyrrolidin-3-yl}-terephthalamic acid]
  IC50: 42.1 nM

## CNC(=O)c1ccc(NC(=O)c2cccc(-c3cc(Nc4ccc(OC)c(OC)n4)c4nccn4n3)c2)cc1 [Example I-96, 3-(8-(5,6-Dimethoxypyridin-2-ylamino)imidazo[1,2-b]pyridazin-6-yl)-N-(4-(methylcarbamoyl)phenyl)benzamide]
  IC50: 103 nM

## CC1CCCN1c1cccc(Nc2cc(-c3cccc(OCCN4CCOCC4)c3)nn3ccnc23)n1 (stereo not drawn) [Example I-88, [6-(2-Methyl-pyrrolidin-1-yl)-pyridin-2-yl]-{6-[3-(2-morpholin-4-yl-ethoxy)-phenyl]-imidazo[1,2-b]pyridazin-8-yl}-amine]
  IC50: 51 nM

## O=C(O)c1cccc(-c2cc(Nc3cccc(N4CCCC4)n3)c3nccn3n2)c1 [Example I-22, 3-[8-(6-Pyrrolidin-1-yl-pyridin-2-ylamino)-imidazo[1,2-b]pyridazin-6-yl]-benzoic acid hydrochloride]
  IC50: 434 nM

## CCN(CC)CCOc1ccc(-c2cc(Nc3cccc(N4CCCC4C)n3)c3nccn3n2)cc1 (stereo not drawn) [Example I-92, {6-[4-(2-Diethylamino-ethoxy)-phenyl]-imidazo[1,2-b]pyridazin-8-yl}-[6-(2-methyl-pyrrolidin-1-yl)-pyridin-2-yl]-amine]
  IC50: 60.6 nM

— patent US9169259B2, “Imidazopyridazine compounds” (Hoffmann-La Roche Inc., priority 2011, dated 2015)
